Test results: article PMC7519074, “Polar functional group-containing glycolipid CD1d ligands modulate cytokine-biasing responses and prevent experimental colitis” (Scientific Reports, 2020)
In brackets after ≈: the same amount, converted by molar mass. Entries after “also recorded” stand apart in the source; their conditions may differ.

Experiments:
mCD1d-Fc fusion protein [1] = molecular target: T1, mCD1d-Fc fusion protein (Mus musculus, UniProt P11609); assay: Antigen presenting cell (APC)-free assay for lipid binding to mCD1d-Fc; IL-2 release by 2E10 NKT hybridoma cells; type: cell-based; set-up: unit not given here; settings: mean ± SEM; for IL-2 production (exact values of IL-2): ligand 10 nM, Fig. 3a, b; for IL-2 production: ligand 100 nM, Fig. 3c, d
T1 construct: Ig (mouse immunoglobulin fusion partner); purchased BD Biosciences
T1 sequence (P11609 22-305 limits assumed): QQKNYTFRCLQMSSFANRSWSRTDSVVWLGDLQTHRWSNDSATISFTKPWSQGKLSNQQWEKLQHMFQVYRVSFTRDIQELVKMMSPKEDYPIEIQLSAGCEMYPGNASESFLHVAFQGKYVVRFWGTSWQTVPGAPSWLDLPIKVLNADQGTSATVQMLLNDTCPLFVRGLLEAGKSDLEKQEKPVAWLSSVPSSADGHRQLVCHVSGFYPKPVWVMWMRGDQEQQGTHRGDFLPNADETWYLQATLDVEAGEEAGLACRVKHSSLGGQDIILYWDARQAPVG
T1 sequence (P01887 21-119 partner): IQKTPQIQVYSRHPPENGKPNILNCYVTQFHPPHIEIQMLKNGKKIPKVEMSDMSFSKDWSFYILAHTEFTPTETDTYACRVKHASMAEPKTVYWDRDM
Description: NKT hybridoma 2E10 cells were cultured in RPMI-1640 (NACALAI TESQUE, INC) supplemented with 10% fetal bovine serum (FBS; Biowest), and 1% penicillin–streptomycin (Gibco).
For this assay, 96-well microplates (Bio-one 96-well cell culture plate, Greiner) were coated with mouse CD1d:Ig Fusion protein (BD Biosciences) (0.25 μg/well) in PBS at 37 °C for 24 h. […] After washing, 2E10 NKT hybridoma cells (2.5 × 10^5 cells/well) were added and cultured at 37 °C for 48 h. IL-2 release was measured with an ELISA kit (Affymetrix).

mouse splenocytes = assay: Cytokine secretion assay using mouse splenocyte; type: cell-based, C57BL/6 mice; set-up: IFN-γ production / IL-4 production / IL-17A production: unit not given here; settings: for IFN-γ production / IL-4 production / IL-17A production: 1 nM ligand, 48 h; for IL-17A production: Fig. S2c; for Relative ratio IL-4/IFN-γ of cytokine production compared to α-GalCer / Relative ratio IL-17A/IFN-γ of cytokine production compared to α-GalCer: 1 nM; for Relative ratio IL-4/IFN-γ of cytokine production compared to α-GalCer: Fig. 5a; for Relative ratio IL-17A/IFN-γ of cytokine production compared to α-GalCer: Fig. 5b; for cytokine polarization in words: from relative ratios, Fig. 5
Description: Spleen cell suspensions (from C57BL/6 mice) were prepared in complete medium (RPMI 1,640 media supplemented with 10% FBS and 1% penicillin–streptomycin) and seeded into 96-well plates (6.0 × 10^5 cells/well). Lipid ligands were added, and the mixture were incubated at 37 °C for 48 h. IFN-γ, IL-4 and IL-17A release were measured with an ELISA kit (Affymetrix).

Water solubility = type: physicochemical
[2] = Metabolic stability, human liver microsome; type: in vitro ADME; settings: for half-life: liver microsomes, read-out: metabolic stability (liver microsome, T1/2) human
[3] = Metabolic stability, rat liver microsome; type: in vitro ADME; settings: for half-life: liver microsomes, read-out: metabolic stability (liver microsome, T1/2) rat
mCD1d-Fc fusion protein [4] = molecular target: T1, mCD1d-Fc fusion protein; set-up: method as in PMID 27648599; settings: previously reported; cited from earlier work
DSS-induced colitis [5] = system: DSS-induced colitis; set-up: method as in PMID 15674111; settings: cited from earlier work
DSS-induced colitis [6] = assay: DSS-induced colitis model of ulcerative colitis; type: in vivo; settings: for DAI scores (disease activity index) versus PBS control / colon length (colon shortening) versus PBS control: 100 μg/kg ip on day 4, 2.0% DSS day 1-7, read on day 8
Description: DSS treatment causes progressive weight loss, diarrhea and colon inflammation with a significant reduction in colon length, which leads to increases in the clinical scores of disease symptoms (DAI: disease activity index). C57BL/6 mice (n = 12 per group) were continuously treated with 2.0% DSS in their drinking water from day 1 to day 7. The mice were injected intraperitoneally with 100 μg/kg of the derivatives or PBS (control) on day 4. On day 8, the DAI scores and colon lengths of the mice administered the derivatives were compared with those of the mice administered PBS (control). […] Colon shortening is a feature of colon inflammation in the DSS-induced model. In the model, the colon length of healthy mice is about 8 cm (DSS (−)), whereas that of mice upon DSS treatment is about 4 cm (DSS + PBS) as shown in Fig. 7b. […] In this study, we selected the intraperitoneal injection as the administration method of lipid ligands, and used DAI scores and colon length to investigate the protective effects of derivatives against colitis. On the other hand, the difference in the administration method of immunomodulators, such as lipid ligands, might have a significant impact on their efficacy[46],[47]. In addition, the cytokine profiles in the colon upon ligand treatment could also provide useful information regarding their efficacy. Further research is currently being conducted into the effects of administration methods on efficacy and the examination of colon cytokine profiles.
The animal experiments using murine DSS model were conducted in accordance with the guidelines of Keio university institutional animal care and use committee. Specific pathogen-free C57BL/6 mice were purchased from Japan Clea (Tokyo, Japan). All mice were housed under specific pathogen-free conditions in microisolator cages in an animal facility, and male mice (7 weeks of age) were used. DSS (dextran sulfate sodium) was added to the water supply provided to the animals at a concentration of 2.0% (wt/vol) for days 1–7. Derivatives 2 and 3 were first dissolved in DMSO at 100 μg/mL and then diluted in PBS solution. The derivatives (100 μg/kg in 200 μL of solution) were injected intraperitoneally on day 4 after the induction of colitis. Control animals received 200 μL of PBS solution containing the same concentration of DMSO. Mice were sacrificed on day 8 after DSS administration. Intestinal tissues were removed and opened longitudinally. The length of the colon was measured after exclusion of cecum. The disease activity index (DAI), defined as stool blood, stool form and weight loss, and the length of the colon were used to analyze the therapeutic benefits of derivatives 2 and 3.

[7] = Plasma pharmacokinetic profile in mice after ip dosing; type: in vivo, C57BL/6J mice; settings: male, C57BL/6, mouse, 100 ug/kg, 100 μg/kg ip, mice n = 6
Description: The pharmacokinetic study was approved by The Institutional Animal Care and Use Committee of Ono Pharmaceutical Co., Ltd. and was performed in accordance with the ethics criteria contained in the animal welfare bylaws of the Committee. The pharmacokinetics of 3 were studied following intraperitoneal administration. The 10 μg/mL dosing solution, which contained DMSO/Phosphate buffered saline = 1/9, was administered intraperitoneally to six male C57BL/6 mice (Charles River Laboratories, Japan, Inc.). Blood samples were collected into heparinized syringes at designated times and centrifuged to obtain the plasma samples. The plasma samples were assayed after protein precipitation by acetonitrile/ethanol (70/30, v/v), followed by HPLC/MS/MS analysis. Plasma concentration–time data were analyzed by noncompartmental methods.

[8] = Table S1, dash = below the detection limit (< 5 μM) according to b25

Row | SMILES | IL-2 production (exact values of IL-2) (mCD1d-Fc fusion protein [1]) | solubility (Water solubility; [8]) | metabolic stability in words [2] | half-life [2] | metabolic stability in words [3] | half-life [3] | solubility (Water solubility; detection limit 5 μM) | IFN-γ production (mouse splenocytes; Fig. 4a) | IL-4 production (mouse splenocytes; Fig. 4b) | IFN-γ production (mouse splenocytes; Fig. S2a) | IL-4 production (mouse splenocytes; Fig. S2b) | IL-17A production (mouse splenocytes) | Relative ratio IL-4/IFN-γ of cytokine production compared to α-GalCer (mouse splenocytes) | Relative ratio IL-17A/IFN-γ of cytokine production compared to α-GalCer (mouse splenocytes) | cytokine polarization in words (mouse splenocytes) | cytokine production / agonistic activity relative to α-GalCer, in words (mCD1d-Fc fusion protein [4]) | also measured
1 | CCCCCCCCCCCCCC[C@@H](O)[C@@H](O)[C@H](CO[C@H]1O[C@H](CO)[C@H](O)[C@H](O)[C@H]1O)NC(=O)CCCCCCCCCCCNC(=O)CCCCCCCCCCCC [1a] | 177 ± 27 | < 5 µM | good metabolic stability | 1 h | good metabolic stability | 0.783 h | – | 16,907 ± 3,679 | 247 ± 19 | 9,152 ± 373 | 232 ± 41 | 1,276 ± 60 | 1.27 ± 0.23 | 0.76 ± 0.06 | relatively less selective cytokine responses | higher levels of cytokine production relative to that caused by α-GalCer | IL-2 production (mCD1d-Fc fusion protein [1]): 2,502 ± 114
2 | CCCCCCCCCCCCCC[C@@H](O)[C@@H](O)[C@H](CO[C@H]1O[C@H](CO)[C@H](O)[C@H](O)[C@H]1O)NC(=O)CCCCCCCCCCCNC(=O)CCCCCC [1b] | 662 ± 46 | – | good metabolic stability | > 3.33 h | good metabolic stability | > 3.33 h | 5 µM (≈ 3.95 µg/mL) | – | – | 822 ± 11 | – | 976 ± 207 | 5.04 ± 0.90 | 6.43 ± 1.27 | IL-4- and IL-17A-biasing properties | higher levels of cytokine production relative to that caused by α-GalCer | –
3 | CCCCCCCCCCCCCCCCCCCCCCCC(=O)N[C@@H](COC1OC(CO)C(O)C(O)C1O)[C@H](O)[C@H](O)CCCCC (some centres unmarked) [OCH] | – | – | – | – | – | – | – | – | – | – | – | – | – | – | – | – | efficacy in the murine DSS model, in words (DSS-induced colitis [5]): effective in the murine DSS model
4 | CCCCCCCCCCCCCC[C@@H](O)[C@@H](O)[C@H](CO[C@H]1O[C@H](CO)[C@H](O)[C@H](O)[C@H]1O)NC(=O)CCCCCCCCCCCNC(=O)CCCCCCCNC(=O)CC [compound 2] | – | < 5 µM | – | < 0.25 h | resistant to rat microsomal metabolism | 1.07 h | – | – | – | 9,467 ± 362 | 593 ± 65 | 5,179 ± 154 | 3.15 ± 0.46 | 2.98 ± 0.03 | relatively less selective cytokine responses | higher levels of cytokine production relative to that caused by α-GalCer | mice died by day 8 (DSS-induced colitis [6]; 100 μg/kg ip on day 4, 2.0% DSS day 1-7, n = 12 per group): Two out of twelve; DAI scores (disease activity index) versus PBS control (DSS-induced colitis [6]): did not significantly alter the DAI scores; colon length (colon shortening) versus PBS control (DSS-induced colitis [6]): significantly prevented the colon shortening
5 | CCCCCCCCCCCCCC[C@@H](O)[C@@H](O)[C@H](CO[C@H]1O[C@H](CO)[C@H](O)[C@H](O)[C@H]1O)NC(=O)CCCCCCCCCCCNC(=O)c1ccccc1 [compound 3] | – | – | suboptimal metabolic property for human liver microsome | < 0.25 h | resistant to rat microsomal metabolism | 2.82 h | 7.2 µM (≈ 5.62 µg/mL) | – | – | 514 ± 79 | – | 1651 ± 127 | 10.2 ± 1.6 | 18.0 ± 1.7 | IL-4- and IL-17A-biasing properties | higher levels of cytokine production relative to that caused by α-GalCer; also recorded: higher agonistic activity than α-GalCer | Cmax [7]: 92.8 ng/mL; Tmax [7]: 1 h; half-life [7]: 5.2 h; AUC ([7]; ip): 466 ng·h/mL; DAI scores (disease activity index) versus PBS control (DSS-induced colitis [6]): significant improvement in the DAI scores; colon length (colon shortening) versus PBS control (DSS-induced colitis [6]): significantly prevented the colon shortening
6 | CCCCCCCCCCCCCCCCCCCCCCCCCC(=O)N[C@@H](CO[C@H]1O[C@H](CO)[C@H](O)[C@H](O)[C@H]1O)[C@H](O)[C@H](O)CCCCCCCCCCCCCC [α-GalCer, α-galactosyl ceramide, reference compound] | – | < 5 µM | – | – | – | – | < 5 µM | – | – | 12,297 ± 61 | 247 ± 14 | 2,258 ± 242 | – | – | – | – | IL-2 production (mCD1d-Fc fusion protein [1]): 274 ± 53; efficacy in the murine DSS model, in words (DSS-induced colitis [5]): effective in the murine DSS model

Further lines, with some results ahead:

Row | IL-2 production (exact values of IL-2) (mCD1d-Fc fusion protein [1]) | solubility (Water solubility; [8]) | metabolic stability in words [2] | half-life [2] | metabolic stability in words [3] | half-life [3] | solubility (Water solubility; detection limit 5 μM) | SMILES | IFN-γ production (mouse splenocytes; Fig. 4a) | IL-4 production (mouse splenocytes; Fig. 4b) | IFN-γ production (mouse splenocytes; Fig. S2a) | IL-4 production (mouse splenocytes; Fig. S2b) | IL-17A production (mouse splenocytes) | Relative ratio IL-4/IFN-γ of cytokine production compared to α-GalCer (mouse splenocytes) | Relative ratio IL-17A/IFN-γ of cytokine production compared to α-GalCer (mouse splenocytes) | cytokine polarization in words (mouse splenocytes) | cytokine production / agonistic activity relative to α-GalCer, in words (mCD1d-Fc fusion protein [4]) | also measured
7 | 749 ± 92 | < 5 µM | metabolized more rapidly | 0.25 h | metabolized more rapidly | 0.383 h | – | CCCCCCCCCCCCCC[C@@H](O)[C@@H](O)[C@H](CO[C@H]1O[C@H](CO)[C@H](O)[C@H](O)[C@H]1O)NC(=O)CCCCCCCCCCCN(C)C(=O)CCCCCCCCCCCC [4a] | 39,159 ± 4,960 | 599 ± 13 | – | – | – | – | – | – | – | –
8 | 323 ± 41 | < 5 µM | good metabolic stability | > 3.33 h | good metabolic stability | > 3.33 h | – | CCCCCCCCCCCCCC[C@@H](O)[C@@H](O)[C@H](CO[C@H]1O[C@H](CO)[C@H](O)[C@H](O)[C@H]1O)NC(=O)CCCCCCCCCCCNCCCCCCCCCCCCC [6a] | 8,515 ± 1,016 | 286 ± 12 | – | – | – | – | – | – | – | –
